Reference: ChEMBL document CHEMBL1150977, “A quantitative analysis of kinase inhibitor selectivity” (Nat Biotechnol, 2008)

molecular target: T1, Receptor-type tyrosine-protein kinase FLT3 (Homo sapiens, UniProt P36888)
T1 sequence (P36888 whole entry): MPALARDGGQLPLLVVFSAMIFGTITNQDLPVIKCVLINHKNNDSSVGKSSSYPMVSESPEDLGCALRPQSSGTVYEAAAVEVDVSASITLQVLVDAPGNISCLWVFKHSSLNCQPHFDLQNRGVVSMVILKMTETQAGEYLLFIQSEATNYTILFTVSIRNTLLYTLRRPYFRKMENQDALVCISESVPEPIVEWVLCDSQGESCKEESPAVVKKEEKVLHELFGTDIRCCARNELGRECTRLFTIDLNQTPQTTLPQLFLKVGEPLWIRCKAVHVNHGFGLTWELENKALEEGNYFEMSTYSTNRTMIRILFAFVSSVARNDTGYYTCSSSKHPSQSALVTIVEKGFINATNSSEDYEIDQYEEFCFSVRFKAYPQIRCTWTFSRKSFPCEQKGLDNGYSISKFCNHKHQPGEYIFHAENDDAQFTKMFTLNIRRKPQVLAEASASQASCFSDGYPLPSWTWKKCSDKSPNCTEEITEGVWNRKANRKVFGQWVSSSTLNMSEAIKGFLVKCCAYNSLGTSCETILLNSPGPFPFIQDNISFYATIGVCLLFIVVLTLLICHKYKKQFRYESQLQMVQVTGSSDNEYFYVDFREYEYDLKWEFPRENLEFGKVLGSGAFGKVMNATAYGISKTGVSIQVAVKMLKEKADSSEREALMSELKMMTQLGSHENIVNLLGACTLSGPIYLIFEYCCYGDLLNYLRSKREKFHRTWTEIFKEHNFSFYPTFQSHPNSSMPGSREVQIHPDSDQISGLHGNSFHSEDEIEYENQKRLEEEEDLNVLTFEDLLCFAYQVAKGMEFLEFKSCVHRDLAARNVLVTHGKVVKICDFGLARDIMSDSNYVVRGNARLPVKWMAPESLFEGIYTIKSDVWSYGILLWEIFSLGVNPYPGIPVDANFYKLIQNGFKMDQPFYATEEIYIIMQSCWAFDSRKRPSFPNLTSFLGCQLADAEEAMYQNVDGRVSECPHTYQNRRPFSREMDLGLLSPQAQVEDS

**Q.** How did the Kd turn out when CCOc1cc2ncc(C#N)c(Nc3ccc(F)c(Cl)c3)c2cc1NC(=O)/C=C/CN(C)C [PELITINIB] was run?
**A.** > 10 µM

**Q.** How did the Kd turn out when Oc1ccc(-c2nc(-c3ccncc3)c(-c3ccc(F)cc3)[nH]2)cc1 [SB-202190] was run?
**A.** > 10 µM

**Q.** With COCC(=O)NC/C=C/c1ccc2ncnc(Nc3ccc(Oc4ccc(C)nc4)c(C)c3)c2c1 [CP-724714] as the compound, how does the Kd read?
**A.** > 10 µM

molecular target: Activin receptor type-1-like (Homo sapiens, UniProt P37023)
Sequence (P37023 whole entry): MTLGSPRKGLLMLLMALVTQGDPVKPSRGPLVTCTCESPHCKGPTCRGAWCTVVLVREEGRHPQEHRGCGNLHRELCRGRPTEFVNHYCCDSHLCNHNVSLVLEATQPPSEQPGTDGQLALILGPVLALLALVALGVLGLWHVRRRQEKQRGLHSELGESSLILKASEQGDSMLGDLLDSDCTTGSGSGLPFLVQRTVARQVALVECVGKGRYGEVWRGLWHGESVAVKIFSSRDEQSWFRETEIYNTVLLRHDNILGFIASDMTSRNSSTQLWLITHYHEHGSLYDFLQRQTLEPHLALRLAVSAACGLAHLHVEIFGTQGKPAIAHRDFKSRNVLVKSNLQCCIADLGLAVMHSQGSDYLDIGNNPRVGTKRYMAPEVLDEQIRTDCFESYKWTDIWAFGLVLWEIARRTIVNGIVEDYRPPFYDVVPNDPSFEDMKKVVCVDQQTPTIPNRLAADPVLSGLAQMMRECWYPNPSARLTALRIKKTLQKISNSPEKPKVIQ

**Q.** Which Kd does the source give for CCOc1cc2ncc(C#N)c(Nc3ccc(F)c(Cl)c3)c2cc1NC(=O)/C=C/CN(C)C [PELITINIB] here?
**A.** > 10 µM

**Q.** How did the Kd turn out when Oc1ccc(-c2nc(-c3ccncc3)c(-c3ccc(F)cc3)[nH]2)cc1 [SB-202190] was run?
**A.** > 10 µM

**Q.** COCC(=O)NC/C=C/c1ccc2ncnc(Nc3ccc(Oc4ccc(C)nc4)c(C)c3)c2c1 [CP-724714] was tested. Which Kd did it give?
**A.** > 10 µM

**Q.** With NC(=O)c1ccc(-c2nc(-c3ccc4c(c3)OCO4)c(-c3ccccn3)[nH]2)cc1 [SB-431542] as the compound, how does the Kd read?
**A.** > 10 µM

molecular target: T2, Protein kinase C epsilon type (Homo sapiens, UniProt Q02156)
T2 sequence (Q02156 whole entry): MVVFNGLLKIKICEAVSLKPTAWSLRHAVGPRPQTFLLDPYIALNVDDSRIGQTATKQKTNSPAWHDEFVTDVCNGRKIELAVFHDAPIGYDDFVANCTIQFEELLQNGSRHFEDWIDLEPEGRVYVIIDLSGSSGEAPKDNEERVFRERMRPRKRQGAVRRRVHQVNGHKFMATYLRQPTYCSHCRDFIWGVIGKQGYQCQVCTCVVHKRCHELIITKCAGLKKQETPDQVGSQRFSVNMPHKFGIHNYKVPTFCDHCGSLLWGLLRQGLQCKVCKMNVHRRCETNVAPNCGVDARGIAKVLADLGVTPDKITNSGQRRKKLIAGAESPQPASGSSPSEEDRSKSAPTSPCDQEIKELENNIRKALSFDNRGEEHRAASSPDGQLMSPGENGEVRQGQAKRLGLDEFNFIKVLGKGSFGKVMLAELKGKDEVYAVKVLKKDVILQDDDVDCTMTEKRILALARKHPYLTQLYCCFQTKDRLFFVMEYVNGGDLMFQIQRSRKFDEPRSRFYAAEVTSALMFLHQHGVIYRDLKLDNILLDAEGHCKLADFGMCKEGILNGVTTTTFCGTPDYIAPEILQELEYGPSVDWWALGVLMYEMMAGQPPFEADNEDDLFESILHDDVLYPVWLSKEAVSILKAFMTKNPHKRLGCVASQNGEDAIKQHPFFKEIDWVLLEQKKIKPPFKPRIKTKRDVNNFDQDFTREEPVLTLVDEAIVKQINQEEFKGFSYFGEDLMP

**Q.** For CCOc1cc2ncc(C#N)c(Nc3ccc(F)c(Cl)c3)c2cc1NC(=O)/C=C/CN(C)C [PELITINIB], which Kd is on record?
**A.** > 10 µM

**Q.** With Nc1nc(Nc2ccc(S(N)(=O)=O)cc2)nn1C(=O)c1c(F)cccc1F [JNJ-7706621] as the compound, how does the Kd read?
**A.** > 10 µM

**Q.** Oc1ccc(-c2nc(-c3ccncc3)c(-c3ccc(F)cc3)[nH]2)cc1 [SB-202190] was tested. Which Kd did it give?
**A.** > 10 µM

**Q.** How did the Kd turn out when COCC(=O)NC/C=C/c1ccc2ncnc(Nc3ccc(Oc4ccc(C)nc4)c(C)c3)c2c1 [CP-724714] was run?
**A.** > 10 µM

**Q.** How did the Kd turn out when NC(=O)c1ccc(-c2nc(-c3ccc4c(c3)OCO4)c(-c3ccccn3)[nH]2)cc1 [SB-431542] was run?
**A.** > 10 µM

molecular target: T3, Mitogen-activated protein kinase 15 (Homo sapiens, UniProt Q8TD08)
T3 sequence (Q8TD08 whole entry): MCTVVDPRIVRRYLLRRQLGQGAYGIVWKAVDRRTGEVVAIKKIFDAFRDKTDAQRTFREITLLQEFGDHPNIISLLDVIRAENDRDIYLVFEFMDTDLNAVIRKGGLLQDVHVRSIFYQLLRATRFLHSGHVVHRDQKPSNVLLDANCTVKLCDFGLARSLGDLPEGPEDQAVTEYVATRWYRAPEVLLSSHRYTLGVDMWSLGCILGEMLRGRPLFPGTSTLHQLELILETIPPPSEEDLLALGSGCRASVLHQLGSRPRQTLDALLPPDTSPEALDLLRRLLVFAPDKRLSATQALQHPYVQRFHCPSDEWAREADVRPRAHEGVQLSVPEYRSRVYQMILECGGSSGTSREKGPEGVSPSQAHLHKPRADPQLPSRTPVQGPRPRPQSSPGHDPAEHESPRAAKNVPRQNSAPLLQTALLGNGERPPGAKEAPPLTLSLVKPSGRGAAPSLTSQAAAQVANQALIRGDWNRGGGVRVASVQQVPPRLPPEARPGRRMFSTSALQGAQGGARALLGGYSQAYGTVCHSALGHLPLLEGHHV

**Q.** Which Kd does the source give for CCOc1cc2ncc(C#N)c(Nc3ccc(F)c(Cl)c3)c2cc1NC(=O)/C=C/CN(C)C [PELITINIB] here?
**A.** > 10 µM

**Q.** Which Kd does the source give for Oc1ccc(-c2nc(-c3ccncc3)c(-c3ccc(F)cc3)[nH]2)cc1 [SB-202190] here?
**A.** > 10 µM

**Q.** With COCC(=O)NC/C=C/c1ccc2ncnc(Nc3ccc(Oc4ccc(C)nc4)c(C)c3)c2c1 [CP-724714] as the compound, how does the Kd read?
**A.** > 10 µM

**Q.** NC(=O)c1ccc(-c2nc(-c3ccc4c(c3)OCO4)c(-c3ccccn3)[nH]2)cc1 [SB-431542] was tested. Which Kd did it give?
**A.** > 10 µM
